Among the data in patent US8338465B2, “Cyclic carboxylic acid rhodanine derivatives for the treatment and prevention of tuberculosis” (priority 2006, dated 2012) are IC50 values, retold here.

Like-named read-outs stand apart in the source and are kept apart here.

The target in this assay is T1, dihydrolipoamide acyltransferase (DlaT) (Mycobacterium tuberculosis, UniProt P9WIS7).
T1 sequence (P9WIS7 1-553): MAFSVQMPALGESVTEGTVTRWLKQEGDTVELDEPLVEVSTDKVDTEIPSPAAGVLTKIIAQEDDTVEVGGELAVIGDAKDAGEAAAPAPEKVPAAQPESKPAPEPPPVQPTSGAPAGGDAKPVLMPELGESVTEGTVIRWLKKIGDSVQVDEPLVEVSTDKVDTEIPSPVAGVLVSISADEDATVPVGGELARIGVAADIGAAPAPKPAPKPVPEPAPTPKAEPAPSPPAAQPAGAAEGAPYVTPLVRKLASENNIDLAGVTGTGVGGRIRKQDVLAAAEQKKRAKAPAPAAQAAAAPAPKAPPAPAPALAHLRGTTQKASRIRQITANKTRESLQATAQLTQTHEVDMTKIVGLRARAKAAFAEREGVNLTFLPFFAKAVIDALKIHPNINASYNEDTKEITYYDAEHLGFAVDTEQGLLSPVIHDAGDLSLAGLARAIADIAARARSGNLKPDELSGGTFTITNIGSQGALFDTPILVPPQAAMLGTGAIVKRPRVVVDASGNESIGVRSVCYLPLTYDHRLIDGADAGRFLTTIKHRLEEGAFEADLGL
Kind of assay: DlaT inhibition (Dlat IC50); DTNB peroxidase assay with Lpd, DlaT and AhpD. The assay is classed as biochemical.

[1] abbreviates: Table 1, Compounds A1 to A294, read-out: Dlat IC50 category.

Take `O=C(O)CCN1C(=O)C(=Cc2cccc(-c3ccc(Cl)s3)n2)SC1=S` [Compound P2]: the IC50 (Dlat IC50 category, Table 16, Compounds P1 to P2) was in the range of 11 to 40 µM.

For the setting “Dlat IC50 category”, `Cc1cccc(C)c1-c1ccc(C=C2SC(=S)N(Nc3ccccc3C(=O)O)C2=O)o1` [Compound D24, 2-{5-[5-(2,6-Dimethyl-phenyl)-furan-2-ylmethylene]-4-oxo-2-thioxo-thiazolidin-3-ylamino}-benzoic acid] returned a concentration for half-maximal inhibition (IC50) of less than 10 µM. On to `CN(C)c1ccc(N2C(=O)C(=Cc3ccc(-c4cccc(Cl)c4)o3)SC2=S)cc1C(=O)O` [Compound A275], for which the IC50 under setting [1] lay within 11 to 40 µM. `O=C(O)c1ccccc1NN1C(=O)/C(=C\c2ccc(-c3ccc(N4CCOCC4)cc3)o2)SC1=S` (single isomer, unassigned) [Compound D6, 2-{5-[1-[5-(4-morpholin-4-yl-phenyl)-furan-2-yl]-meth-(E)-ylidene]-4-oxo-2-thioxo-thiazolidin-3-ylamino}-benzoic acid]: the IC50 (Dlat IC50 category) lay within 11 to 40 µM.

On to `O=C(O)c1cccc(N2C(=O)C(=Cc3ccc(-c4cccc([N+](=O)[O-])c4)o3)SC2=S)c1` [Compound A127], for which, under setting [1], the 50% inhibitory concentration (IC50) is less than 10 µM. For the setting “Dlat IC50 category”, `O=C(O)C(Cc1ccc(O)cc1)N1C(=O)C(=Cc2ccc(-c3cccc(C(F)(F)F)c3)o2)SC1=S` (centres unmarked) [Compound B52] came in with an IC50 of less than 10 µM.

On to `NS(=O)(=O)c1ccc(N2C(=O)C(=Cc3ccc(-c4cccc(Cl)c4)o3)SC2=S)cc1` [Compound A19], for which the half-inhibitory concentration (IC50) under setting [1] lay in the range of 11 to 40 µM. Turning to `O=C(O)C1CCCC(N2C(=O)C(=Cc3ccc(-c4cccc(C(F)(F)F)c4)o3)SC2=S)C1` (centres unmarked) [Compound C5, 3-{5-[1-[5-(3-trifluoromethyl-phenyl)-furan-2-yl]-methylidene]-4-oxo-2-thioxo-thiazolidin-3-yl}-cyclohexanecarboxylic acid], the IC50 (Dlat IC50 category) is less than 10 µM. Take `Cc1ccc(C(=O)O)cc1N1C(=O)C(=Cc2ccc(-c3ccccc3Cl)o2)SC1=S` [Compound A78]: the IC50 under setting [1] was less than 10 µM. Regarding `CC(C(=O)O)N1C(=O)C(=Cc2ccc(-c3ccc(F)cc3)o2)SC1=S` (centres unmarked) [Compound B98], the half-inhibitory concentration (IC50) (Dlat IC50 category) lay within 41 to 80 µM. The same measure, in the same setting: the same measure for `O=C(O)C1CCC(N2C(=O)C(=Cc3ccc(-c4ccc(C(F)(F)F)cc4)o3)SC2=S)CC1` (centres unmarked) [Compound C55, 4-{4-oxo-2-thioxo-5-[1-[5-(4-trifluoromethyl-phenyl)-furan-2-yl]-methylidene]-thiazolidin-3-yl}-cyclohexanecarboxylic acid]: 11 to 40 µM.

Consider `CN(C)c1ccc(-c2ccc(C=C3SC(=S)N(c4cccc(C(=O)O)c4)C3=O)o2)cc1` [Compound A116], for which, under setting [1], the 50% inhibitory concentration (IC50) was 11 to 40 µM.

For the molecule `CC(=O)Nc1ccc(-c2ccc(C=C3SC(=S)N(c4ccc(F)c(C(=O)O)c4)C3=O)o2)cc1` [Compound A262], the concentration for half-maximal inhibition (IC50) under setting [1] is 11 to 40 µM.

Regarding `Cc1ccc(-c2ccc(C=C3SC(=S)N(C4CCC(C(=O)O)CC4)C3=O)o2)c(F)c1` (centres unmarked) [Compound C46, 4-{5-[1-[5-(2-fluoro-4-methyl-phenyl)-furan-2-yl]-methylidene]-4-oxo-2-thioxo-thiazolidin-3-yl}-cyclohexanecarboxylic acid], the half-inhibitory concentration (IC50) (Dlat IC50 category) was less than 10 µM.

With `O=C(O)c1ccc(F)c(N2C(=O)C(=Cc3ccc(-c4ccccc4O)o3)SC2=S)c1` [Compound A163], under setting [1], the IC50 is less than 10 µM. As for `CN(C)c1ccc(-c2ccc(C=C3SC(=S)N(CC(=O)O)C3=O)o2)cc1` [Compound B86], the IC50 (Dlat IC50 category) was in the range of 41 to 80 µM. The same measure, in the same setting: the same measure for `O=C(O)c1ccccc1NN1C(=O)C(=Cc2ccc(-c3ccc(C(F)(F)F)cc3)o2)SC1=S` [Compound D39, 2-{4-oxo-2-thioxo-5-[1-[5-(4-trifluoromethyl-phenyl)-furan-2-yl]-methylidene]-thiazolidin-3-ylamino}-benzoic acid]: less than 10 µM. As for `CC(C)c1ccc(-c2ccc(C=C3SC(=S)N(c4cccc(O)c4)C3=O)o2)cc1` [Compound A52], the concentration for half-maximal inhibition (IC50) under setting [1] lay within 11 to 40 µM. On the same count and under the same terms, with `O=C(O)c1ccc(F)c(N2C(=O)C(=Cc3ccc(-c4ccccc4-c4ccccc4)o3)SC2=S)c1` [Compound A245] the figure was less than 10 µM.

For the setting “Dlat IC50 category”, `CC(C)Oc1ccc(-c2ccc(C=C3SC(=S)N(C4CCC(C(=O)O)CC4)C3=O)o2)cc1` (centres unmarked) [Compound C67, 4-{5-[5-(4-Isopropoxy-phenyl)-furan-2-ylmethylene]-4-oxo-2-thioxo-thiazolidin-3-yl}-cyclohexanecarboxylic acid] gave an IC50 of less than 10 µM. For `O=C(O)c1cc(N2C(=O)C(=Cc3ccc(-c4ccccc4F)o3)SC2=S)ccc1F` [Compound A256], the IC50 under setting [1] is 11 to 40 µM. Consider `CCc1ccc(-c2ccc(C=C3SC(=S)N(Nc4ccccc4C(=O)O)C3=O)o2)cc1` [Compound D38, 2-{5-[1-[5-(4-ethyl-phenyl)-furan-2-yl]-methylidene]-4-oxo-2-thioxo-thiazolidin-3-ylamino}-benzoic acid], for which the 50% inhibitory concentration (IC50) (Dlat IC50 category) is less than 10 µM. With `CC(C)(C)c1ccc(-c2ccc(C=C3SC(=S)N(c4cccc(C(=O)O)c4)C3=O)o2)cc1` [Compound A58], under setting [1], the half-maximal inhibitory concentration (IC50) was less than 10 µM. Regarding `O=C(O)COc1cccc(N2C(=O)C(=Cc3ccc(-c4ccc(Cl)cc4)o3)SC2=S)c1` [Compound A60], the IC50 under setting [1] was in the range of 11 to 40 µM.

For the molecule `Cc1ccccc1-c1ccc(C=C2SC(=S)N(Nc3ccccc3C(=O)O)C2=O)o1` [Compound D51, 2-{4-oxo-2-thioxo-5-[1-(5-o-tolyl-furan-2-yl)-methylidene]-thiazolidin-3-ylamino}-benzoic acid], the half-maximal inhibitory concentration (IC50) (Dlat IC50 category) was less than 10 µM. Turning to `COc1ccc(C)cc1-c1ccc(C=C2SC(=S)N(c3cc(C(=O)O)ccc3F)C2=O)o1` [Compound A254], the IC50 under setting [1] was less than 10 µM. Same read-out and setting: the same measure for `CC(=O)Nc1ccc(-c2ccc(C=C3SC(=S)N(c4cccc(C(=O)O)c4)C3=O)o2)cc1` [Compound A204]: less than 10 µM; for `CSc1ccccc1-c1ccc(C=C2SC(=S)N(c3ccc(F)c(C(=O)O)c3)C2=O)o1` [Compound A282]: less than 10 µM.

Regarding `Cc1cccc(C)c1-c1ccc(C=C2SC(=S)N(c3cc(C(=O)O)ccc3F)C2=O)o1` [Compound A172], the IC50 under setting [1] is less than 10 µM.

With `O=C(O)CCN1C(=O)C(=Cc2ccc(-c3ccc(O)cc3)o2)SC1=S` [Compound B26], under “Dlat IC50 category”, the IC50 lay in the range of 41 to 80 µM.

In turn, `COc1ccc(-c2ccc(C=C3SC(=S)N(C4CCCC(C(=O)O)C4)C3=O)o2)cc1F` (centres unmarked) [Compound C26, 3-{5-[1-[5-(3-fluoro-4-methoxy-phenyl)-furan-2-yl]-methylidene]-4-oxo-2-thioxo-thiazolidin-3-yl}-cyclohexanecarboxylic acid] yielded a half-inhibitory concentration (IC50) (Dlat IC50 category) of less than 10 µM. On the same count and under the same terms, with `O=C(O)C(Cc1ccccc1)N1C(=O)C(=Cc2ccc(-c3c(Cl)cccc3Cl)o2)SC1=S` (centres unmarked) [Compound B49] the figure was less than 10 µM. Same read-out and setting: the same measure for `O=C(O)C(c1ccccc1)N1C(=O)C(=Cc2ccc(-c3ccc(Cc4ccccc4)cc3)o2)SC1=S` (centres unmarked) [Compound B32]: less than 10 µM. Consider `CSc1ccc(-c2ccc(C=C3SC(=S)N(C4CCCC(C(=O)NC(CO)CO)C4)C3=O)o2)cc1` (centres unmarked) [Compound U8, 3-{5-[1-[5-(4-Methylsulfanyl-phenyl)-furan-2-yl]-methylidene]-4-oxo-2-thioxo-thiazolidin-3-yl}-cyclohexanecarboxylic acid (2-hydroxy-1-hydroxymethyl-ethyl)-amide], for which the IC50 (Dlat IC50 category, Table 21, Prodrugs (Examples U1 to U10)) was in the range of 41 to 80 µM.

As to `Cc1cccc(C)c1-c1ccc(C=C2SC(=S)N(C3CCCC(C(=O)O)C3)C2=O)o1` (centres unmarked) [Compound C23, 3-{5-[5-(2,6-Dimethyl-phenyl)-furan-2-ylmethylene]-4-oxo-2-thioxo-thiazolidin-3-yl}-cyclohexanecarboxylic acid], the IC50 (Dlat IC50 category) was 11 to 40 µM.

As a reminder, the IC50 is the concentration at which inhibition is half-maximal.
